Common to all, as to format: cell-based, Human
One test has as its system Aβ-GFP SH-SY5Y cells. The test is described as follows: Western blot in Aβ-GFP SH-SY5Y cells. The settings on record: LM-021 5 μM, immunoblot. As to the method: To monitor the cAMP-mediated signal transduction pathway, CRE-GFP 293 cells in 6-well plates (1 × 10^6/well) were pretreated with kinase inhibitor H-89 (LC Laboratories, Woburn, MA, USA), KN-62 (Cayman Chemical, Ann Arbor, MI, USA), U0126 (LC Laboratories), or wortmannin (LC Laboratories) (10 μM) for 4 h before forskolin or LM-021 (10 μM) addition for 5 h. GFP fluorescence/protein and total/phosphorylated PKA, CaMKII, ERK, PI3K, and CREB levels were examined. In addition, Aβ-GFP or ∆K280 tauRD-DsRed SH-SY5Y cells were treated with retinoic acid (10 μM) on day 1, followed by the addition of LM-021 (5 or 10 μM) and doxycycline (5 or 2 μg/ml) on day 2, as described. Kinase inhibitors (10 μM) were added on day 6. On day 8, the cells were collected for protein expression analysis of BDNF, BCL2 (BCL2 apoptosis regulator), and BAX (BCL2 associated X, apoptosis regulator), and total/phosphorylated PKA, CaMKII, ERK, PI3K, and CREB. Also, cells were stained with DAPI and assessed for neurite outgrowth as described above.
Total proteins from CRE-GFP 293 and Aβ-GFP, ∆K280 tauRD-DsRed SH-SY5Y cells were extracted using lysis buffer (50 mM Tris-HCl (pH 8.0), 150 mM NaCl, 1 mM EDTA (pH 8.0), 1 mM EGTA (pH 8.0), 0.1% SDS, 0.5% sodium deoxycholate, 1% Triton X-100) containing phosphatase and protease inhibitor cocktails (Sigma-Aldrich). Protein concentrations were measured using a protein assay kit (Bio-Rad, Hercules, CA, USA), and 20 μg of proteins was separated with 10% SDS-PAGE and blotted onto polyvinylidene difluoride (PVDF) membranes (Sigma-Aldrich). After blocking, the membrane blot was incubated with primary antibody against GFP (1 : 500; Santa Cruz Biotechnology, Santa Cruz, CA, USA), PKA (1 : 1000; R&D Systems, Minneapolis, MN, USA), p-PKA (T197) (1 : 1000; Cell Signaling, Danvers, MA, USA), ERK (1 : 500; Cell Signaling), p-ERK (T202/Y204) (1 : 500; Cell Signaling), CaMKII (1 : 1000; Santa Cruz Biotechnology), p-CaMKII (T286) (1 : 1000; Cell Signaling), CREB (1 : 1000; Santa Cruz Biotechnology), p-CREB (S133) (1 : 1000; Millipore, Billerica, MA, USA), BDNF (1 : 500; Santa Cruz Biotechnology), BCL2 (1 : 500; BioVision), BAX (1 : 500; BioVision), GAPDH (glyceraldehyde-3-phosphate dehydrogenase, as a loading control) (1 : 1000; MDBio, Taipei, Taiwan), or β-tubulin (1 : 1000, Sigma-Aldrich, as a loading control). The immune complexes were visualized using horseradish peroxidase-conjugated goat anti-mouse or goat anti-rabbit IgG antibody (1 : 5000, GeneTex, Irvine, CA, USA) and a chemiluminescent substrate (Millipore).
A general note: Immunoblotting shows a protein as a band on a membrane.

The next test deals with CRE-GFP 293 cells. Briefly: CRE-GFP 293 reporter cell assay (flow cytometry). The settings on record: 5–10 μM, 5 h, in the presence or absence of Ca2+ ionophore (2 μM). In general terms: A flow cytometer gives signals particle by particle.
Test [1] relates to ∆K280 tauRD-DsRed SH-SY5Y cells. Briefly: Real-time PCR of tauRD-DsRed RNA. The note with it: 10 μM. How it is done: To measure the Aβ-GFP/tauRD-DsRed RNA expression on day 8, total RNA was extracted from collected cells and reverse-transcribed to cDNA (SuperScript III reverse transcriptase; Invitrogen, Waltham, MA, USA). Real-time quantitative PCR was performed using 100 ng of cDNA and the gene-specific TaqMan fluorogenic probe PN4331348 (EGFP) or customized Assays-by-Design probe for DsRed and 4326321E (HPRT1) (StepOnePlus Real-time PCR system, Applied Biosystems, Foster City, CA, USA). The RNA expression level was calculated using the formula 2^ΔCt, ΔCT = CT (control) − CT (target), in which CT indicates the cycle threshold.
For orientation: In qPCR the cycle at which signal appears reflects the starting amount.

Molecules are shown by their SMILES.

Consider `CN(C)c1ccc(/C=C/C(=O)c2c(O)c3ccccc3oc2=O)cc1` [LM-021, (E)-3-(3-(4-(dimethylamino)phenyl)acryloyl)-4-hydroxy-2H-chromen-2-one], for which, in the test with Aβ-GFP SH-SY5Y cells, the BAX protein levels result is “reduced”; the “PKA and ERK protein levels” value was “rescued the reduction in PKA and ERK, although not significantly”; the “p-CREB, CREB, pro-BDNF, m-BDNF, and BCL2 protein levels” value was “significantly increased”; the “p-PKA, p-CaMKII, and p-ERK protein levels” value was “significantly upregulated”. Also, the “CRE-motif-driven GFP expression” value with CRE-GFP 293 cells is “significantly activated”. In addition, the “∆K280 tauRD-DsRed RNA level” value in test [1] is “did not significantly alter”.
